Test results from PubChem BioAssay (NCI).
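Compound exposure: 48 hours, 5 concentrations, 96-well plates. TGI denotes the concentration required for complete inhibition of growth.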 Where a SMILES comes first, the peptide text is derived from it. [ ]: non-standard residue; d: D form. The star is where a group is joined. Phe(4-NO2) = N[CH](Cc1ccc([N+](=O)[O-])cc1)C(=O)O; Boc = CC(C)(C)OC(=O)*

How the values were obtained:
Experiment in all cases: growth of human tumour cells (NCI), 48 h
IGROV1 ovarian = tested on: IGROV1 ovarian
SF-539 CNS = tested on: SF-539 CNS
HOP-92 NSCLC = tested on: HOP-92 NSCLC
K-562 leukemia = tested on: K-562 leukemia
LOX IMVI melanoma = tested on: LOX IMVI melanoma
KM12 colon = tested on: KM12 colon
HL-60(TB) leukemia = tested on: HL-60(TB) leukemia
SNB-75 CNS = tested on: SNB-75 CNS
NCI-H522 lung = tested on: NCI-H522 lung
OVCAR-8 ovarian = tested on: OVCAR-8 ovarian

Structure (SMILES)	TGI (IGROV1 ovarian) [µM]	TGI (SF-539 CNS) [µM]	TGI (HOP-92 NSCLC) [µM]	TGI (K-562 leukemia) [µM]	TGI (LOX IMVI melanoma) [µM]	TGI (KM12 colon) [µM]	TGI (HL-60(TB) leukemia) [µM]	TGI (SNB-75 CNS) [µM]	TGI (NCI-H522 lung) [µM]	TGI (OVCAR-8 ovarian) [µM]
CC(C)NC(=O)CN1CCN(c2c(O)c3c(c(O)c2Cl)C(=O)C=CC3=O)CC1	4.66	3.66	4.16	> 100	1.92	18.4	0.642	11.3	3.33	3.81
Cc1ccc(NC(=O)c2cc(S(=O)(=O)Nc3nc4ncccc4[nH]3)c(SSc3cc(Cl)c(C(=O)Nc4ccc(C)cc4)cc3S(=O)(=O)Nc3nc4ncccc4[nH]3)cc2Cl)cc1	> 100	> 100	> 100	> 100	> 100	> 100	> 100	> 100	> 100	> 100
CCOC(=O)c1ccc(N=c2sc3ccccc3nc2Nc2ccc(C(=O)OCC)cc2)cc1	> 100	> 100	> 100	> 100	> 100	> 100	> 100	> 100	77.6	> 100
CC(=O)OCc1ccc2oc(=O)c(C(=O)Oc3ccccc3)cc2c1	> 100	> 100	40.2	30	> 100	> 100	> 100	> 100	> 100	> 100
CNC(=O)CCC(NC(=O)OC(C)(C)C)C(=O)NC(Cc1ccc([N+](=O)[O-])cc1)C(=O)NCC(=O)NC (stereo not given) (Boc-Glu(NHMe)-[Phe(4-NO2)]-Gly-NHMe; configuration not given here)	> 100	> 100	> 100	> 100	> 100	> 100	> 100	> 100	> 100	> 100
CCCCCCCCCCCCCCCCCCN(C)CC(COP(=O)([O-])OCC[N+](C)(C)C)OC (stereo not given)	6.63	40.3	35.6	54.6	26	7.71	11.1	15.6	30.2	44.8
C=C(C)[C@@H]1CCC2=C[C@H](OC2=O)[C@@]2(C)C[C@@H]2C2=CC(C)=C(O2)[C@H]1O	> 75	> 75	> 75	> 75	> 75	> 75	> 75	> 75	48.2	> 75
N[C@H]1CCCC[C@@H]1N1C(=O)c2ccccc2C1(O)c1ccc(Cl)cc1 (stereo not given in full)	25.7	25	24.9	13.2	22.5	9.75	20	7.98	27.8	32.4
O=[N+]([O-])c1cc(-c2nc(-c3ccccc3)c(-c3ccccc3)[nH]2)c(O)c([N+](=O)[O-])c1	> 100	41.5	36.9	> 100	49.1	65.1	70.1	60	63.7	> 100
OCCNCNc1nc(NCNCCO)nc(N(CNCCO)CNCCO)n1	49.4	41.3	51.1	50.3	40.2	> 59.5	63.8	50.6	41.3	59.5
O=[N+]([O-])c1ccc(N/N=C/c2ccc(OCCCCCCCCCCCO)cc2)c([N+](=O)[O-])c1	67.4	4.22	14.6	2.97	59.7	7.84	31.2	4.27	9.44	9.86
COc1ccc(C(=O)/C=C/c2cc(O)c(O)c(F)c2F)c(OC)c1	> 100	65.3	> 100	> 100	> 100	33.5	25.5	79.5	30.3	> 100
N#Cc1cnc(N)nc1NCC1(CO)CC(CCc2ccccc2)C1 (stereo not given)	> 100	> 100	> 100	> 100	> 100	> 100	> 100	> 83.1	> 100	> 100
O=C(Nc1nc(C23CC4CC(CC(C4)C2)C3)cs1)c1cc2ccccc2oc1=O	> 100	> 100	> 100	> 100	> 100	> 100	> 100	> 100	> 100	> 100
Cc1cc(=O)oc2c(CNC(Cc3ccccc3)C(=O)O)c(O)ccc12 (stereo not given)	> 100	> 100	> 100	> 100	> 100	> 100	> 100	> 100	> 100	> 100
CC(=O)OCC1OC(n2c(-c3ccc(C)cc3)cc(-c3ccccc3)c(C#N)c2=S)C(OC(C)=O)C(OC(C)=O)C1OC(C)=O (stereo not given)	> 100	> 100	> 100	> 100	> 100	> 100	> 100	> 100	> 100	> 100
CCC(=O)Nc1ccc(N2C(=O)C(Cl)C2c2ccc(SC)cc2)cc1 (stereo not given)	> 100	> 100	> 100	> 100	> 100	> 100	> 100	> 100	> 100	> 100
CC(C(O)c1ccccc1)C(O)(C(F)(F)F)C(F)(F)F (stereo not given)	> 100	> 100	> 100	> 100	> 100	> 100	> 100	> 100	> 100	> 100

Structure (SMILES)	TGI (IGROV1 ovarian) [µM]	TGI (SF-539 CNS) [µM]	TGI (HOP-92 NSCLC) [µM]	TGI (K-562 leukemia) [µM]	TGI (LOX IMVI melanoma) [µM]	TGI (KM12 colon) [µM]	TGI (HL-60(TB) leukemia) [µM]	TGI (SNB-75 CNS) [µM]	TGI (NCI-H522 lung) [µM]	TGI (OVCAR-8 ovarian) [µM]
Cc1ccccc1S(=O)(=O)Nn1cnc2ccc(S(=O)(=O)Nc3ccc(Cl)cc3)cc2c1=O	> 100	> 100	> 100	> 100	> 100	> 100	> 100	> 100	> 100	> 100
O=C1CC(c2ccccc2)n2cccc21 (stereo not given)	> 100	> 100	> 100	> 100	> 100	> 100	> 100	> 100	> 100	> 100
CN(C)c1nc(Cl)c2c(-c3ccccc3)c(-c3ccccc3)oc2n1	> 100	> 100	> 100	> 100	> 100	> 100	36	> 100	78.7	> 100
COc1cc(CNNC(N)=S)cc(OC)c1OC	> 100	> 100	> 100	> 100	> 100	> 100	> 100	> 100	> 100	> 100
Cc1ccc(S(=O)(=O)NNCNC(=O)c2ccccc2)cc1	> 100	> 100	> 100	> 100	> 100	> 100	48.2	> 100	> 100	> 100
Cc1ccnc(NC(NC(=O)c2ccccc2)(C(F)(F)F)C(F)(F)F)c1	> 100	> 100	> 100	> 100	> 100	> 100	> 100	> 100	> 100	> 100
COc1cc(/C=C/C(=O)C2(C(=O)/C=C/c3cc(OC)c(OC)c(OC)c3)CCCCC2)cc(OC)c1OC	> 100	47.8	68	> 100	> 100	75.9	> 100	> 100	96.9	65.2
CC(C)(C)OC(=O)N1C(c2cccnc2)=CC[C@H]2C3CC=C(c4cccnc4)[C@@]3(C)CC[C@@H]21 (stereo not given in full)	16.4	14.8	8.34	38.6	8.41	28.8	14	19.7	11.9	25
CCOC(=O)NC(Nc1ccc(C(=O)OCC)cc1)(C(F)(F)F)C(F)(F)F	> 100	> 100	> 100	> 100	> 100	> 100	> 100	> 100	> 100	> 100
C/C(=N\NC(=S)NCCCNC(=S)N/N=C(\C)c1ccccn1)c1ccccn1	37.4	8.72	> 66.2	> 100	> 51.2	> 76.1	> 30.2	31.7	> 49.4	10.9
COc1ccc(SCc2cc(OCc3ccccc3)c(OCc3ccccc3)c(OCc3ccccc3)c2)cc1	3.34	3.45	3.08	2.62	2.91	3.16	3.44	3	3.37	3.59
CCOC(=O)CCC(NC(=O)c1ccc(OCc2ccc3nc(-c4ccccc4)c(Cl)nc3c2)cc1)C(=O)OCC (stereo not given)	> 31.6	28.7	25.5	> 100	> 100	> 31.6	> 31.6	30.3	> 31.6	25.3
CC(C)(C)c1cc(O)ccc1O	> 100	> 100	> 79.2	> 100	> 74.6	> 100	26.7	25.2	> 39.8	> 84.2
CC(=O)c1cc2ccccc2oc1=O	> 100	> 100	> 100	> 100	> 100	> 100	> 100	> 100	> 100	> 100
CCOC(=O)C(SCCO)C(C(=O)OCC)n1ccc(=O)[nH]c1=O (stereo not given)	> 95	> 71.6	69.1	36.1	> 43.8	> 87.4	12	> 95.9	22.7	> 57.4
Nn1c(Cc2ccc([N+](=O)[O-])cc2)n[nH]c1=O	> 100	> 100	> 100	> 100	> 100	> 100	> 100	> 100	> 100	> 100
CCCCCCCCCCNC(=O)CCC(NC(=O)c1ccc(N(C)Cc2cnc3nc(N)nc(N)c3n2)cc1)C(=O)NCCCCCCCCCC (stereo not given)	20.1	15.3	27.1	> 32.2	5.81	16.2	> 25.3	32.1	16.6	25.5
CC(=O)Nc1ccc(C2SCc3nc4ccccc4n32)cc1 (stereo not given)	> 100	> 100	> 100	> 100	> 100	> 100	> 100	> 100	> 100	> 100
